Peptide text beside a SMILES is read from it.
Key:
Escherichia coli [1] = experiment: Inhibition of Escherichia coli degP assessed as residual proteolytic activity at 0.5 mM
[2] = Inhibition of elastase assessed as residual proteolytic activity at 0.5 mM
[3] = Inhibition of subtilisin assessed as residual proteolytic activity at 0.5 mM
[4] = molecular target: Plasminogen (Homo sapiens) (UniProt P00747); experiment: Inhibition of plasmin assessed as residual proteolytic activity at 0.5 mM
[5] = Inhibition of trypsin assessed as residual proteolytic activity at 0.5 mM
[6] = Inhibition of chymotrypsin assessed as residual proteolytic activity at 0.5 mM
[7] = molecular target: Prothrombin (Homo sapiens) (UniProt P00734); experiment: Inhibition of thrombin assessed as residual proteolytic activity at 0.5 mM
[8] = Inhibition of kallikrein assessed as residual proteolytic activity at 0.5 mM
Escherichia coli [9] = experiment: Inhibition of Escherichia coli degP assessed as specific activity at 0.5 mM; parameters: scale not given: the % may be the effect or the level left
[10] = Inhibition of elastase assessed as specific activity at 0.5 mM; parameters: scale not given: the % may be the effect or the level left
[11] = Inhibition of subtilisin assessed as specific activity at 0.5 mM; parameters: scale not given: the % may be the effect or the level left
[12] = molecular target: Plasminogen (Homo sapiens) (UniProt P00747); experiment: Inhibition of plasmin assessed as specific activity at 0.5 mM; parameters: scale not given: the % may be the effect or the level left
[13] = Inhibition of trypsin assessed as specific activity at 0.5 mM; parameters: scale not given: the % may be the effect or the level left
[14] = Inhibition of chymotrypsin assessed as specific activity at 0.5 mM; parameters: scale not given: the % may be the effect or the level left
[15] = molecular target: Prothrombin (Homo sapiens) (UniProt P00734); experiment: Inhibition of thrombin assessed as specific activity at 0.5 mM; parameters: scale not given: the % may be the effect or the level left
[16] = Inhibition of kallikrein assessed as specific activity at 0.5 mM; parameters: scale not given: the % may be the effect or the level left
Escherichia coli [17] = experiment: Activity at Escherichia coli degP
[18] = Inhibition of elastase
[19] = Inhibition of subtilisin
[20] = Inhibition of Escherichia coli degP

Sequence of Plasminogen (Homo sapiens) (P00747 97-580 limits assumed): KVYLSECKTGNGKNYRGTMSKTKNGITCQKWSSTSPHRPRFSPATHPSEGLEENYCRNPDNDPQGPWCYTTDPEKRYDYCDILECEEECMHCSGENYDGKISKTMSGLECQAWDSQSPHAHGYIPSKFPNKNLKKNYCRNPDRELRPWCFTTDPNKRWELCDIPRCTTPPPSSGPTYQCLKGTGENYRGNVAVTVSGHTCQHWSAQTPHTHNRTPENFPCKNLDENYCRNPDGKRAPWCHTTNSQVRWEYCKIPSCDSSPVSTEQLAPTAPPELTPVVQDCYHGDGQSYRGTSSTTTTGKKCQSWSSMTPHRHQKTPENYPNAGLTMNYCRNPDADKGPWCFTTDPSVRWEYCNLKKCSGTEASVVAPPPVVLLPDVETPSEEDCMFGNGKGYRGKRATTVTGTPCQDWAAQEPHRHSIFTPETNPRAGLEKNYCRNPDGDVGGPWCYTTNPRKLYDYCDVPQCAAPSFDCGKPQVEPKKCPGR
Sequence of Plasminogen (Homo sapiens) (P00747 581-810 limits assumed): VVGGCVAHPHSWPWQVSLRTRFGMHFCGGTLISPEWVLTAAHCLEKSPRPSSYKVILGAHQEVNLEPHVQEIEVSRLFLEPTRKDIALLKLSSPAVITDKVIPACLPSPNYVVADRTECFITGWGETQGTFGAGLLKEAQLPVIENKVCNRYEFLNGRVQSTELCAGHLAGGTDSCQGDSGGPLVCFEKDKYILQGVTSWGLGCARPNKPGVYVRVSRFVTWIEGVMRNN

SMILES | Activity (Escherichia coli [1]) | Activity [2] | Activity [3] | Activity [4] | Activity [5] | Activity [6] | Activity [7] | Activity [8] | further results
CC[C@H](C)[C@H](N)C(=O)N[C@@H](Cc1c[nH]c2ccccc12)C(=O)N[C@@H](CC(N)=O)C(=O)N[C@H](C(=O)N[C@@H](CC(C)C)C(=O)N[C@@H](CC(N)=O)C(=O)N[C@@H](CO)C(=O)NCC(=O)N[C@@H](CCCNC(=N)N)C(=O)N[C@H](C(=O)N[C@H](C(=O)N1CCC[C@H]1C(=O)NCC(=O)N[C@H](C(=O)NCC(=O)N[C@@H](Cc1cnc[nH]1)C(=O)N[C@@H](C)C(=O)CCl)[C@@H](C)O)C(C)C)C(C)C)[C@@H](C)O (HELM PEPTIDE1{I.W.N.T.L.N.S.G.R.V.V.P.G.T.G.H.A.[ClC[*:1]]}$$$$V2.0) | 101% | 60% | 15% | 74% | 410% | 78% | 98% | 111% | –
CC(C)[C@H](NC(=O)[C@H](CCCNC(=N)N)NC(=O)CNC(=O)[C@@H](N)CO)C(=O)N[C@H](C(=O)N1CCC[C@H]1C(=O)NCC(=O)N[C@@H](Cc1ccc(O)cc1)C(=O)NCC(=O)N[C@@H](Cc1cnc[nH]1)C(=O)N[C@@H](C)C(=O)CCl)C(C)C (HELM PEPTIDE1{S.G.R.V.V.P.G.Y.G.H.A.[ClC[*:1]]}$$$$V2.0) | 102% | 83% | 15% | 62% | 285% | 69% | 131% | 135% | –
CSCC[C@H](NC(=O)[C@@H]1CCCN1C(=O)[C@@H](N)CC(=O)O)C(=O)N[C@@H](Cc1ccccc1)C(=O)N[C@@H](CCCCN)C(=O)N[C@@H](CC(C)C)C(=O)N[C@H](C(=O)Nc1ccc([N+](=O)[O-])cc1)C(C)C (HELM PEPTIDE1{D.P.M.F.K.L.V.[O=[N+]([O-])c1ccc(N[*:1])cc1]}$$$$V2.0) | – | – | – | – | – | – | – | – | Activity (Escherichia coli [9]): 473%; Activity [10]: 4%; Activity [11]: 1%; Activity [12]: < 1%; Activity [13]: < 1%; Activity [14]: < 1%; Activity [15]: < 1%; Activity [16]: < 1%; Km (Escherichia coli [17]): 600 µM; Vmax (Escherichia coli [17]): 1.2 µmol/min
CSCC[C@H](NC(=O)[C@H](CCSC)NC(=O)[C@@H]1CCCN1C(=O)[C@H](CC(C)C)NC(=O)[C@@H](NC(=O)[C@H](CC(N)=O)NC(=O)[C@H](Cc1ccccc1)NC(=O)[C@@H](NC(=O)[C@@H]1CCCN1)C(C)C)[C@@H](C)O)C(=O)NCC(=O)N[C@@H](CCCCN)C(=O)N[C@@H](C)C(=O)N[C@@H](CO)C(=O)N1CCC[C@H]1C(=O)N[C@H](C(=O)CCl)C(C)C (HELM PEPTIDE1{P.V.F.N.T.L.P.M.M.G.K.A.S.P.V.[ClC[*:1]]}$$$$V2.0) | 63% | < 1% | 143% | 62% | 591% | 48% | 101% | 122% | –

Continued, in another order:

Activity (Escherichia coli [1]) | Activity [2] | Activity [3] | Activity [4] | Activity [5] | Activity [6] | Activity [7] | Activity [8] | SMILES | further results
3% | < 1% | < 1% | 81% | 354% | 92% | 96% | 101% | CSCC[C@H](NC(=O)[C@@H]1CCCN1C(=O)[C@@H](N)CO)C(=O)N[C@@H](Cc1ccccc1)C(=O)N[C@@H](CCCCN)C(=O)NCC(=O)N[C@H](C(=O)CCl)C(C)C (HELM PEPTIDE1{S.P.M.F.K.G.V.[ClC[*:1]]}$$$$V2.0) | IC50 [18]: 220 µM; IC50 [19]: 0.001 µM; IC50 [20]: 75 µM
49% | < 1% | 5% | 71% | 348% | 53% | 122% | 108% | CSCC[C@H](NC(=O)[C@H](CCSC)NC(=O)[C@@H]1CCCN1)C(=O)NCC(=O)N[C@@H](CCCCN)C(=O)N[C@@H](C)C(=O)N[C@@H](CO)C(=O)N1CCC[C@H]1C(=O)N[C@H](C(=O)CCl)C(C)C (HELM PEPTIDE1{P.M.M.G.K.A.S.P.V.[ClC[*:1]]}$$$$V2.0) | –
57% | < 1% | 155% | 75% | 287% | 22% | 102% | 88% | CSCC[C@H](NC(=O)[C@H](CCSC)NC(=O)[C@@H]1CCCN1C(=O)[C@H](CC(C)C)NC(=O)[C@@H](NC(=O)[C@H](CC(N)=O)NC(=O)[C@H](Cc1ccccc1)NC(=O)[C@@H](N)C(C)C)[C@@H](C)O)C(=O)NCC(=O)N[C@@H](CCCCN)C(=O)N[C@@H](C)C(=O)N[C@@H](CO)C(=O)N1CCC[C@H]1C(=O)N[C@H](C(=O)CCl)C(C)C (HELM PEPTIDE1{V.F.N.T.L.P.M.M.G.K.A.S.P.V.[ClC[*:1]]}$$$$V2.0) | –

Source: ChEMBL document CHEMBL1153316, “Selectivity profiling of DegP substrates and inhibitors” (Bioorg Med Chem, 2009)
